# In ChEMBL document CHEMBL1155993, “5-(2-Pyrimidinyl)-imidazo[1,2-a]pyridines are antibacterial agents targeting the ATPase domains of DNA gyrase and topoisomerase IV” (Bioorg Med Chem Lett, 2009):
# pIC50: −log10 of the molar value.
# Columns and labels:
# ParE = target: T1, ParE (Streptococcus pneumoniae, UniProt Q7X1P7); experiment: Inhibition of Streptococcus pneumoniae SP-3 parE after 30 mins
# T1 sequence (Q7X1P7 whole entry): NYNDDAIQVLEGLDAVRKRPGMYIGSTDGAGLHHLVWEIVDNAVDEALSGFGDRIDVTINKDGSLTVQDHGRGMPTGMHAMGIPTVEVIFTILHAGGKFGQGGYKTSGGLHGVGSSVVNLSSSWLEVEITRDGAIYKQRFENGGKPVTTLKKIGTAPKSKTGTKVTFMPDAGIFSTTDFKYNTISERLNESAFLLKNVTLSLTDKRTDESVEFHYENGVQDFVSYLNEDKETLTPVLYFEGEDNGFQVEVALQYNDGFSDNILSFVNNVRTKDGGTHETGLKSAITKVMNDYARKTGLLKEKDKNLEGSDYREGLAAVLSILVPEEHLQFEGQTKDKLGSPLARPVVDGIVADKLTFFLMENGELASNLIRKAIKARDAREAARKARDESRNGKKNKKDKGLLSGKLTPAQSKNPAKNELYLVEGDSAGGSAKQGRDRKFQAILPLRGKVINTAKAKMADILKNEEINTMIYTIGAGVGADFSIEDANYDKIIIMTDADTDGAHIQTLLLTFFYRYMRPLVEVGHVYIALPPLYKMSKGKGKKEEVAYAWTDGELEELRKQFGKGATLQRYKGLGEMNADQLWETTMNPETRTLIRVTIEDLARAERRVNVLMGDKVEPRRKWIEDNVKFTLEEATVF
# Staphylococcus aureus [1] = experiment: Antibacterial activity against Staphylococcus aureus UC76 by NCCLS method; format: functional, organism-based
# Streptococcus pneumoniae [2] = experiment: Antibacterial activity against fluoroquinolone resistant Streptococcus pneumoniae SP-3765 by NCCLS method; format: functional
# Staphylococcus aureus [3] = experiment: Antibacterial activity against methicillin resistant Staphylococcus aureus 01A-1095 by NCCLS method; format: functional
# Streptococcus pyogenes = experiment: Antibacterial activity against Streptococcus pyogenes C203 by NCCLS method; format: functional
# Streptococcus pneumoniae [4] = experiment: Antibacterial activity against Streptococcus pneumoniae D39 by NCCLS method; format: functional
structure (smiles),measurement,setting,value
CO[C@@H]1[C@@H](OC(N)=O)[C@@H](O)[C@H](Oc2ccc3c(O)c(NC(=O)c4ccc(O)c(CC=C(C)C)c4)c(=O)oc3c2C)OC1(C)C [NOVOBIOCIN],pIC50,ParE,5.69
same,MIC,Staphylococcus aureus [1],0.125 µg/mL
same,MIC,Streptococcus pneumoniae [2],4 µg/mL
same,MIC,Staphylococcus aureus [3],0.125 µg/mL
same,MIC,Streptococcus pyogenes,8 µg/mL
same,MIC,Streptococcus pneumoniae [4],4 µg/mL
